Measurements published in PMC8081293 (Frontiers in Chemistry, 2021).
Read-outs that look alike come from different tables or passages of the source.

Tests used:
Test in all cases: acetophenone formation at […] nm, Michaelis-Menten fit
Assay type in all cases: biochemical
Details in all cases: 0.1 mM PLP, 0.25% DMSO, 50 mM sodium phosphate pH 8.0, 25°C
At-ATA [1] = biological target: T1, At-ATA (Aspergillus terreus, UniProt Q0C8G1, D224K)
T1 construct: gene ATEG_10023

At-ATA [2] = biological target: T2, At-ATA (Aspergillus terreus, UniProt Q0C8G1, E133Q)
T2 construct: gene ATEG_10023

At-ATA [3] = biological target: T3, At-ATA (Aspergillus terreus, UniProt Q0C8G1, E253A)
T3 construct: gene ATEG_10023

[4] = read-out: Km1-(R)-PEA /, 2.5 mM pyruvate
[5] = read-out: Kmpyruvate /, 2.5 mM 1-(R)-PEA

Compound | Km (At-ATA [1]; [4]) [µM] | Km (At-ATA [2]; [4]) [µM] | Km (At-ATA [3]; [4]) [µM] | Km (At-ATA [1]; [5]) [µM] | Km (At-ATA [2]; [5]) [µM] | Km (At-ATA [3]; [5]) [µM]
C[C@@H](N)c1ccccc1 [1-(R)-PEA] | 140 ± 10 | 160 ± 10 | 170 ± 20 |  |  | 
CC(=O)C(=O)O [pyruvate] |  |  |  | 350 ± 20 | 500 ± 10 | 690 ± 10
